Data reported in the supplement of paper PMC13380429.

Key:
Conditions in all cases: 72 h
HepG2 [1] = assay: relative viability EC50 (midpoint between 100% and the lowest measured viability); higher = less toxic
U2OS [2] = assay: as above
Calu-3 [3] = assay: as above
HepG2 [4] = assay: cell viability relative to DMSO; higher = less toxic
Caco-2 [5] = assay: as above
U2OS [6] = assay: as above
Calu-3 [7] = assay: as above
Vero E6 [8] = assay: as above
HepG2 [9] = assay: drug sensitivity score (DSS) for viability; higher = more toxic; extreme values may be limits of the assay
Caco-2 [10] = assay: as above
U2OS [11] = assay: as above
Calu-3 [12] = assay: as above
Vero E6 [13] = assay: as above
Vero E6 [14] = assay: relative viability EC50 (midpoint between 100% and the lowest measured viability); higher = less toxic

| SMILES | relative viability EC50 (HepG2 [1]) [µM] | relative viability EC50 (U2OS [2]) [µM] | relative viability EC50 (Calu-3 [3]) [µM] | cell viability (HepG2 [4]; 1 nM) [%] | cell viability (HepG2 [4]; 10 nM) [%] | cell viability (HepG2 [4]; 100 nM) [%] | cell viability (HepG2 [4]; 1000 nM) [%] | cell viability (HepG2 [4]; 10000 nM) [%] | cell viability (Caco-2 [5]; 1 nM) [%] | cell viability (Caco-2 [5]; 10 nM) [%] | cell viability (Caco-2 [5]; 100 nM) [%] | cell viability (Caco-2 [5]; 1000 nM) [%] | cell viability (Caco-2 [5]; 10000 nM) [%] | cell viability (U2OS [6]; 1 nM) [%] | cell viability (U2OS [6]; 10 nM) [%] | cell viability (U2OS [6]; 100 nM) [%] | cell viability (U2OS [6]; 1000 nM) [%] | cell viability (U2OS [6]; 10000 nM) [%] | cell viability (Calu-3 [7]; 1 nM) [%] | cell viability (Calu-3 [7]; 10 nM) [%] | cell viability (Calu-3 [7]; 100 nM) [%] | cell viability (Calu-3 [7]; 1000 nM) [%] | cell viability (Calu-3 [7]; 10000 nM) [%] | cell viability (Vero E6 [8]; 1 nM) [%] | cell viability (Vero E6 [8]; 10 nM) [%] | cell viability (Vero E6 [8]; 100 nM) [%] | cell viability (Vero E6 [8]; 1000 nM) [%] | cell viability (Vero E6 [8]; 10000 nM) [%] | drug sensitivity score (HepG2 [9]) | drug sensitivity score (Caco-2 [10]) | drug sensitivity score (U2OS [11]) | drug sensitivity score (Calu-3 [12]) | drug sensitivity score (Vero E6 [13]) | relative viability EC50 (Vero E6 [14]) [µM] |
| --- | --- | --- | --- | --- | --- | --- | --- | --- | --- | --- | --- | --- | --- | --- | --- | --- | --- | --- | --- | --- | --- | --- | --- | --- | --- | --- | --- | --- | --- | --- | --- | --- | --- | --- |
| Cc1c(NC(=O)OC[C@@H]2COCCN2)cn2ncnc(Nc3ccc4c(cnn4Cc4cccc(F)c4)c3)c12 | > 10 | > 10 | 0.988 | 89.8 | 104 | 96 | 99.1 | 82.2 | 102 | 101 | 85.1 | 88.2 | 69.3 | 96.6 | 101 | 99.4 | 96.3 | 79.3 | 97.2 | 96.4 | 92.4 | 64.5 | 26.4 | 98.5 | 103 | 91.7 | 84.1 | 60.7 | 0.5 | 3 | 1.1 | 8.2 | 3.5 |  |
| Cc1cc(F)c(Nc2ncnc3cc(OCc4ccccc4)ccc23)cc1O | > 10 |  | > 10 | 105 | 95.5 | 106 | 100 | 85.5 | 101 | 96.6 | 88.4 | 79.4 | 74 | 97.9 | 101 | 96.8 | 102 | 72.9 | 104 | 95.1 | 89.4 | 104 | 76.9 | 99.9 | 103 | 99.3 | 96.2 | 84 | 0.2 | 4 | 0.9 | 0.6 | 0.7 | > 10 |
| OCCNCCCOc1cccc(Cl)c1Cl [2,3-DCPE] | 2.96 | 3.21 | > 10 | 103 | 96.1 | 89.7 | 97.6 | 13.3 | 93.9 | 105 | 106 | 98.7 | 69.4 | 105 | 101 | 100 | 101 | 18.1 | 99.1 | 98.6 | 98.1 | 97.5 | 107 | 92.5 | 96.1 | 103 | 97.9 | 15.5 | 5.1 | 1.5 | 4.5 | 0 | 5 | 2.99 |
| O=C(CCCc1ccc(-c2ccccc2F)cc1)Nc1ccc(O)cc1 [CMPD-1] | 3.08 | 1.27 | > 10 | 99 | 97.8 | 107 | 99.2 | 42.6 | 95.6 | 92.4 | 97.5 | 112 | 71.9 | 94.9 | 99.4 | 94.2 | 74.8 | 36.6 | 94.2 | 105 | 99 | 88.8 | 86.3 | 97.2 | 95.3 | 99.6 | 97.6 | 95.5 | 3.2 | 0.8 | 6.3 | 0.8 | 0 | > 10 |
| CC[C@H](CO)Nc1nc(Nc2cccc(-c3ccccn3)c2)c2ncn(C(C)C)c2n1 [DRF053-(R)] |  | > 10 | > 10 | 98.8 | 108 | 107 | 94.5 | 66.2 | 99.6 | 86.9 | 91.2 | 93.2 | 67.4 | 102 | 101 | 94.7 | 99.6 | 94.4 | 94.7 | 94.9 | 90.7 | 104 | 80.3 | 92 | 92.3 | 92.7 | 89.8 | 81.7 | 2.5 | 2.4 | 0 | 0.4 | 1 | > 10 |
| Cc1cc([N+](=O)[O-])ccc1NS(=O)(=O)c1cc(Cl)ccc1Cl [FH-535] |  | > 10 | > 10 | 100 | 106 | 94.5 | 96.7 | 50.1 | 107 | 103 | 110 | 87.2 | 60.3 | 101 | 97.6 | 93.3 | 96.9 | 89.5 | 104 | 92.4 | 105 | 101 | 93.2 | 98.3 | 102 | 94.1 | 92.8 | 79.2 | 3.1 | 3.8 | 0 | 0 | 0.9 | > 10 |
| CCn1c(=O)c(-c2ccc(Cl)cc2Cl)cc2cnc(Nc3ccc(N4CCNCC4)c(F)c3)nc21 [FRAX486] |  | 2.01 | > 10 | 96.6 | 97.8 | 93.1 | 99.3 | 51.6 | 94.9 | 92.4 | 97.7 | 80 | 63.4 | 103 | 99.8 | 101 | 91.6 | 43 | 104 | 100 | 105 | 91.9 | 97.9 | 97 | 102 | 99.6 | 90.9 | 31.7 | 2.6 | 3.9 | 4.5 | 0 | 5.3 | 2.09 |
| COc1cc2c(cc1-c1c(C)noc1C)ncc1[nH]c(=O)n([C@H](C)c3ccccn3)c12 [I-BET151] | 0.671 | 0.89 |  | 104 | 99.7 | 91.9 | 60.3 | 33.6 | 104 | 87.1 | 89.8 | 81 | 56 | 97.4 | 95.6 | 94.4 | 71.3 | 44.3 | 97.4 | 99.5 | 114 | 75 | 65.3 | 104 | 105 | 94.6 | 40.5 | 13 | 8.6 | 4.9 | 6.3 | 4.5 | 12.2 | 0.607 |
| CC[C@H]1[C@@H](O)[C@@H]2[C@H](CC[C@]3(C)[C@@H]([C@H](C)CCOS(=O)(=O)O)CC[C@@H]23)[C@@]2(C)CC[C@@H](O)C[C@@H]12 [INT-767] | > 10 | > 10 | > 10 | 115 | 118 | 96.2 | 99.4 | 111 |  |  |  |  |  | 102 | 98.1 | 102 | 101 | 101 | 110 | 107 | 108 | 105 | 99.5 |  |  |  |  |  | 0 |  | 0 | 0 |  |  |
| COc1ccc(-c2sc(NC(=O)C(C)(C)C)nc2C)cc1S(=O)(=O)Nc1ccc(O)cc1 [PI4KIII-beta-inhibitor-1] | > 10 | > 10 |  | 105 | 103 | 101 | 90 | 87.6 | 95.6 | 97 | 91.1 | 90.7 | 74.2 | 94.9 | 99.6 | 96.7 | 93.1 | 79.1 | 115 | 102 | 102 | 91.2 | 66.9 | 102 | 96.4 | 92.9 | 96.1 | 88.8 | 0.5 | 1.8 | 1.1 | 2.8 | 0 | > 10 |
| CC(C)(C)n1nc(-c2ccc(Cl)cc2)c2c(N)ncnc21 [PP-2] | > 10 | > 10 | 1.77 | 107 | 98 | 92.6 | 103 | 90.7 | 92.3 | 98.6 | 100 | 88.2 | 54.2 | 93.4 | 98.4 | 96.7 | 89.7 | 77.3 | 104 | 104 | 84.9 | 87 | 37 | 99.4 | 93.5 | 102 | 95.6 | 47 | 0 | 4.2 | 1.4 | 5.4 | 3.5 | 2.49 |
| COc1ccc(F)c(F)c1C(=O)c1cnc(NC2CCN(S(C)(=O)=O)CC2)nc1N [R547] |  |  |  |  |  |  |  |  |  |  |  |  |  |  |  |  |  |  |  |  |  |  |  |  |  |  |  |  | 16.1 |  | 10.3 | 9 | 10.7 |  |
| O=C(O)CCCO [SODIUM OXYBATE] | > 10 | > 10 | > 10 | 82.4 | 105 | 92.8 | 90.8 | 110 |  |  |  |  |  | 103 | 101 | 103 | 96.4 | 100 | 97.3 | 99 | 94.7 | 115 | 112 | 93.6 | 100 | 99.1 | 102 | 87.2 | 0 |  | 0 | 0 | 0 | > 10 |
| NC(=O)[C@H]1CCS[C@@H]2C[C@]3(CCCN3C(=O)Cc3ccc(NC(=O)COc4ccc(Cl)cc4Cl)cc3)C(=O)N12 [ST-2825] | 2.05 |  | > 10 | 96.5 | 101 | 103 | 91.7 | 40.5 | 84.7 | 90.3 | 91.9 | 92.9 | 56 | 96.4 | 104 | 97.6 | 103 | 55.6 | 106 | 96.9 | 96.1 | 99.8 | 91.7 | 101 | 92.2 | 94.8 | 88.1 | 86.6 | 4.6 | 3.5 | 2 | 0 | 0.5 | > 10 |
